This assay concerns the target T1, recombinant human GST-SYK (Homo sapiens, UniProt P43405).
T1 construct: purchased Carna Biosciences 08-176
In words: Homogeneous Time-Resolved Fluorescence (HTRF) assay for the recombinant human Syk enzyme. Format: biochemical. The settings on record: recombinant human GST-SYK 5 pM, ATP 25 μM, read-out: rhSYK IC50. The procedure:
Homogeneous Time-Resolved Fluorescence (HTRF) Assay for the Recombinant Human Syk Enzyme
A recombinant GST-hSYK fusion protein was used to measure potency of compounds to inhibit human Syk activity. The recombinant human GST-SYK (Carna Biosciences #08-176) (5 pM final concentration) was incubated with various concentrations of the inhibitor diluted in DMSO (0.1% final concentration) for 10 minutes at room temperature in 15 mM Tris-HCl (pH 7.5), 0.01% tween 20, 2 mM DTT in 384 well plate format. To initiate the reaction the biotinylated substrate peptide (250 nM final concentration) that contains the phosphorylation site for Syk was added with magnesium (5 mM final concentration) and ATP (25 μM final concentration). Final volume of the reaction was 10 μL. Phosphorylation of the peptide was allowed to proceed for 45′ at room temperature. To quench the reaction and detect the phosphorylated product, 2 nM of a Europium-anti-phosphotyrosine antibody (Perkin Elmer #AD0161) and 70 nM SA-APC (Perkin-Elmer #CR130-100) were added together in 15 mM Tris pH 7.5, 40 mM EDTA, 0.01% tween 20. Final volume of the quenching solution was 10 μL.
The resulting HTRF signal was measured after 30 minutes on an EnVision (Perkin-Elmer) reader using a time-resolved fluorescence protocol. Table A below lists activities as IC50 values (nM) for representative compounds of the invention.
For orientation: Time-resolved FRET reads energy transfer from a long-lived donor to a nearby acceptor.

The IC50 is the concentration that gives 50% inhibition.

With `Cc1cc(Nc2nccc(C(F)(F)F)n2)cc(-c2cnc(C3(O)CCC(C(=O)O)C(C)(C)C3)s2)n1` (single isomer, unassigned) [Example 1.9, (1S,4R or 1R,4S)-4-hydroxy-2,2-dimethyl-4-[5-(6-methyl-4-{[4-(trifluoromethyl)pyrimidin-2-yl]amino}pyridin-2-yl)-1,3-thiazol-2-yl] cyclohexane-carboxylic acid], the concentration for half-maximal inhibition (IC50) is 2.1 nM.
On to `CC1(C)CC(O)(c2ncc(-c3nccc(Nc4cc(C(F)(F)F)ccn4)n3)s2)CCC1C(=O)O` (single isomer, unassigned) [Example 1.14, 4-hydroxy-2,2-(1S,4R or 1R,4S)-dimethyl-4-[5-(4-{[4-(trifluoromethyl)pyridin-2-yl]amino}pyrimidin-2-yl)-1,3-thiazol-2-yl] cyclohexane-carboxylic acid], for which the half-inhibitory concentration (IC50) amounted to 12.1 nM.
With `Cc1cc(Nc2cccnn2)nc(-c2cnc(C3(O)CCCc4cc(C(=O)O)ccc43)s2)c1` (single isomer, unassigned) [Example 2.8, (R or S)-5-hydroxy-5-{5-[4-methyl-6-(pyridazin-3-ylamino)pyridin-2-yl]-1,3-thiazol-2-yl}-5,6,7,8-tetrahydronaphthalene-2-carboxylic acid] the figure was 46.5 nM; with `COC(=O)c1ccc2c(c1)CCCC2(O)c1ncc(-c2cc(Nc3nccc(C(F)(F)F)n3)cc(C)n2)s1` (single isomer, unassigned) [Example 4.24, (R or S)-methyl 5-hydroxy-5-[5-(6-methyl-4-{[4-(trifluoromethyl)pyrimidin-2-yl]amino}pyridin-2-yl)-1,3-thiazol-2-yl]-5,6,7,8-tetrahydronaphthalene-2-carboxylate], 17.6 nM.
On to `CC1(C)CC(O)(c2ncc(-c3nccc(Nc4cc(C(F)(F)F)ccn4)n3)s2)CCC1C(=O)O` (single isomer, unassigned) [Example 1.13, (1S,4R or 1R,4S)-4-hydroxy-2,2-dimethyl-4-[5-(4-{[4-(trifluoromethyl)pyridin-2-yl]amino}pyrimidin-2-yl)-1,3-thiazol-2-yl]cyclohexane-carboxylic acid], for which the half-inhibitory concentration (IC50) worked out at 0.564 nM.
With `Cc1cc(Nc2nccc(C)n2)cc(-c2cnc(C3(O)CCC(C(=O)O)C(C)(C)C3)s2)n1` (single isomer, unassigned) [Example 4.16, (1S,4R or 1R,4S)-4-hydroxy-2,2-dimethyl-4-(5-{6-methyl-4-[(4-methylpyrimidin-2-yl)amino]pyridin-2-yl}-1,3-thiazol-2-yl)cyclohexane-carboxylic acid] the figure was 6.91 nM; with `Cc1cc(Nc2cc(C)ccn2)cc(-c2cnc(C(C)(O)[C@H]3CC[C@H](C(=O)O)CC3)s2)c1` (single isomer, unassigned) [Example 4.14, (trans)-4-((R or S)-1-hydroxy-1-(5-{3-methyl-5-[(4-methylpyridin-2-yl)amino]phenyl}-1,3-thiazol-2-yl)ethyl]cyclohexane carboxylic acid], 14.5 nM.
As for `Cc1cc(Nc2nccc(C(F)(F)F)n2)cc(-c2cnc(C(C)(O)c3ccc(C(=O)O)cc3)s2)n1` (single isomer, unassigned) [Example 1.21, (R or S)-4-(1-hydroxy-1-(5-(6-methyl-4-((4-(trifluoromethyl)pyrimidin-2-yl)amino)pyridin-2-yl)thiazol-2-yl)ethyl)benzoic acid], the IC50 worked out at 5.91 nM.
Then `Cc1cc(Nc2cc(C(F)(F)F)ncn2)nc(-c2cnc(C3(O)CCC(C(=O)O)C(C)(C)C3)s2)c1` (stereo not drawn) [Example 1.2, 4-hydroxy-2,2-dimethyl-4-[5-(4-methyl-6-{[6-(trifluoromethyl)pyrimidin-4-yl]amino}pyridin-2-yl)-1,3-thiazol-2-yl]cyclohexane-carboxylic acid], with 1.17 nM; and `OC1(c2ncc(-c3cccc(Nc4cnccn4)n3)s2)CCC1` [Example 4.2, 1-{5-[6-(pyrazin-2-ylamino)pyridin-2-yl]-1,3-thiazol-2-yl}cyclobutanol], with 35.2 nM.
With `Cc1cc(Nc2cc(C(F)(F)F)ncn2)nc(-c2cnc([C@@]3(O)CC[C@H](C(N)=O)[C@H](C)C3)s2)c1` (relative stereo) [Example 1.19, rel-(1S,2R,4R or S)-4-hydroxy-2-methyl-4-[5-(4-methyl-6-{[6-(trifluoromethyl)pyrimidin-4-yl]amino}pyridin-2-yl)-1,3-thiazol-2-yl]cyclohexane-carboxamide] the figure was 0.42 nM; with `Cc1cc(Nc2cc(C(F)(F)F)ccn2)nc(-c2cnc(C3(O)CCC3)s2)n1` [Example 4.5, 1-[5-(4-methyl-6-{[4-(trifluoromethyl)pyridin-2-yl]amino}pyrimidin-2-yl)-1,3-thiazol-2-yl]cyclobutanol], 4.39 nM; with `Cc1cc(Nc2nccc(C)n2)cc(-c2cnc([C@@]3(O)CC[C@H](C(=O)O)C(C)(C)C3)s2)n1` (single isomer, unassigned) [Example 4.3, (1S,4R or 1R, 4S)-4-hydroxy-2,2-dimethyl-4-(5-{6-methyl-4-[(4-methylpyrimidin-2-yl)amino]pyridin-2-yl}-1,3-thiazol-2-yl)cyclohexanecarboxylic acid], 22.1 nM.
In the case of `Cc1cc(Nc2nccc(OC(C)C)n2)cc(-c2cnc([C@@]3(O)CC[C@H](C(N)=O)C(C)(C)C3)s2)n1` (single isomer, unassigned) [Example 1.1, (1S,4R or 1R,4S)-4-hydroxy-4-(5-(4-((4-isopropoxypyrimidin-2-yl)amino)-6-methylpyridin-2-yl)thiazol-2-yl)-2,2-dimethylcyclohexanecarboxamide], the IC50 stood at 1.1 nM.
Take `COC(=O)C1CCC(O)(c2ncc(-c3cc(Nc4nccc(OC(C)C)n4)cc(C)n3)s2)CC1(C)C` (stereo not drawn) [Example 1.15, methyl 4-hydroxy-2,2-dimethyl-4-[5-(6-methyl-4-{[4-(1-methylethoxy)pyrimidin-2-yl]amino}pyridin-2-yl)-1,3-thiazol-2-yl] cyclohexane-carboxylate]: the IC50 is 10.4 nM.
Take `Cc1cc(Nc2cc(C(F)(F)F)ncn2)nc(-c2cnc([C@@]3(O)CC[C@H](C(=O)O)[C@H](C)C3)s2)c1` (single isomer, unassigned) [Example 1.3, rel-(1S,2R,4R or S)-4-hydroxy-2-methyl-4-[5-(4-methyl-6-{[6-(trifluoromethyl)pyrimidin-4-yl]amino}pyridin-2-yl)-1,3-thiazol-2-yl] cyclohexane-carboxylic acid]: the half-inhibitory concentration (IC50) amounted to 0.938 nM.
With `Cc1cc(Nc2nccc(C(F)(F)F)n2)cc(-c2cnc(C(C)(O)[C@H]3CC[C@H](C(=O)O)CC3)s2)n1` (single isomer, unassigned) [Example 4.8, (trans)-4-((R or S)-1-hydroxy-1-[5-(6-methyl-4-{[4-(trifluoromethyl)pyrimidin-2-yl]amino}pyridin-2-yl)-1,3-thiazol-2-yl]ethyl}cyclohexane carboxylic acid] the figure was 0.266 nM.
Then `COc1cc(Nc2nccc(C(F)(F)F)n2)cc(-c2cnc(C3(O)CCC(C(=O)O)C(C)(C)C3)s2)n1` (single isomer, unassigned) [Example 4.18, (1S,4R or 1R,4S)-4-hydroxy-4-[5-(6-methoxy-4-{[4-(trifluoromethyl)pyrimidin-2-yl]amino}pyridin-2-yl)-1,3-thiazol-2-yl]-2,2-dimethylcyclohexane carboxylic acid], with 5.55 nM.

The values above are taken from patent publication US9745295B2, “Thiazole-substituted aminoheteroaryls as spleen tyrosine kinase inhibitors” (Merck Sharp & Dohme Corp., priority 2013, dated 2017).
